The assay deals with IDO (Homo sapiens, UniProt P14902). The assay is described as follows: LLE_IDO_ABS_DR (IDO assay).

As usually defined, the IC50 is the concentration at which inhibition is half-maximal. A lower IC50 goes with greater potency in that assay.

Sequence of IDO (P14902 whole entry): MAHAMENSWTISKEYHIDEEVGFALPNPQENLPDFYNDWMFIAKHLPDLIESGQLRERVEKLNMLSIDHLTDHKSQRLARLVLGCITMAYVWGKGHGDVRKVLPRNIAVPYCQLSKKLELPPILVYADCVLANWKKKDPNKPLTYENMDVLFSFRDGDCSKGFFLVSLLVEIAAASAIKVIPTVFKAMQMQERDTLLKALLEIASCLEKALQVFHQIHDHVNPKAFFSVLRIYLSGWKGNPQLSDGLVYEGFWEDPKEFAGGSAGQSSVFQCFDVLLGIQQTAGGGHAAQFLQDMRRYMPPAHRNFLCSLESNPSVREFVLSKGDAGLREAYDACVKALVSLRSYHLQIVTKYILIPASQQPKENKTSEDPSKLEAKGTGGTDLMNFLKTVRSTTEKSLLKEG

Molecule `CCC1CCCCN1c1ccc(-c2ccccc2C(=O)O)cc1NC(=O)Nc1ccc(C)cc1` (centres unmarked) [Example 107, 4′-(2-ethylpiperidin-1-yl)-3′-(3-p-tolylureido)biphenyl-2-carboxylic acid] yielded a half-inhibitory concentration (IC50) of 1860 nM. This counts as single-digit micromolar.
`CC(C)CN(c1cc(F)c(-c2cc(F)ccc2C(=O)O)cc1NC(=O)Nc1ccc(F)cc1F)C1CCCCC1` [Example 226, 4′-(cyclohexyl(isobutyl)ami-no)-5′-(3-(2,4-difluorophenyl)ureido)-2′,5-difluoro-[1,1′-biphenyl]-2-carboxylic acid] had a half-maximal inhibitory concentration (IC50) of 2.67 nM.
With `Cc1ccc(NC(=O)Nc2cc(-c3cc(F)ccc3C(=O)O)ccc2N(CCC(F)(F)F)Cc2ccccc2Cl)cc1` [Example 18, 4′-((2-Chlorobenzyl)(3,3,3-trifluoropropyl)amino)-5-fluoro-3′-(3-(p-tolyl)ureido)-[1,1′-biphenyl]-2-carboxylic acid] the figure was 630 nM; with `O=C(Nc1ccc(C2CC2)cc1)Nc1cc(-c2ccccc2-c2nnn[nH]2)ccc1N(CCC(F)(F)F)Cc1ccc(F)cc1` [Example 350, 1-(4-cyclopropylphenyl)-3-(4-((4-fluorobenzyl)(3,3,3-trifluoropropyl)amino)-2′-(1H-tetrazol-5-yl)-[1,1′-biphenyl]-3-yl)urea], 250 nM.
`Cc1ccc(NC(=O)Nc2cc(-c3ccccc3-c3nnn[nH]3)ccc2N(CCC(F)(F)F)C2CCCCC2)cc1` [Example 195, 1-(4-(cyclohexyl(3,3,3-trifluoropropyl)amino)-2′-(1H-tetrazol-5-yl)-[1,1′-biphenyl]-3-yl)-3-(p-tolyl)urea]: the midpoint of inhibition, the IC50, lay at 4.79 nM. Compared with the last molecule, the IC50 is about 52-fold lower.
With `CC(C)CN(CC(C)C)c1ccc(-c2ccccc2-c2nnn[nH]2)cc1NC(=O)Nc1cccc(N(C)C)c1` [Example 262, 1-(4-(diisobutylamino)-2′-(1H-tetrazol-5-yl)-[1,1′-biphenyl]-3-yl)-3-(3-(dimethylamino)phenyl)urea] the figure was 190 nM; with `Cc1ccc(NC(=O)Nc2cc(-c3sccc3C(=O)O)ccc2N(CCC2CC2)CC(C)C)cc1` [Example 131, 2-(4-((2-cyclopropylethyl) (isobutyl)amino)-3-(3-p-tolylureido)phenyl) thiophene-3-carboxylic acid], 50 nM; with `CC(C)CN(c1cc(F)c(-c2ccccc2C(=O)O)cc1NC(=O)Nc1ccc(F)cc1F)C1CCCCC1` [Example 230, 4′-(cyclohexyl(isobutyl)ami-no)-5′-(3-(2,4-difluorophenyl)ureido)-2′-fluorobiphenyl-2-carboxylic acid], 2.14 nM.
As for `C#Cc1ccccc1NC(=O)Nc1cc(-c2ccccc2-c2nnn[nH]2)ccc1N(CC(C)C)CC(C)C` [Example 277, 1-(4-(diisobutylamino)-2′-(1H-tetrazol-5-yl)-[1,1′-biphenyl]-3-yl)-3-(2-ethynylphenyl)urea], 160 nM corresponded to half-maximal inhibition (IC50). Against the preceding molecule, the IC50 is about 75-fold higher.
To `Cc1ccc(NC(=O)Nc2cc(-c3cc(F)ccc3C(=O)O)ccc2N(CCC2CC2)CC(C)C)cc1` [Example 130, 4′-((2-cyclopropylethyl) (isobutyl)amino)-5-fluoro-3′-(3-p-tolylureido) biphenyl-2-carboxylic acid] belongs 40 nM; to `CCCN(c1ccc(-c2cc(F)ccc2C(=O)O)cc1NC(=O)Nc1ccc(C)cc1)C1CCCC1` [Example 166, 4′-(cyclopentyl(propyl)amino)-5-fluoro-3′-(3-p-tolylureido) biphenyl-2-carboxylic acid], 20 nM.
Take `CC(C)CN(CC(C)C)c1ccc(-c2ccccc2-c2nnn[nH]2)cc1NC(=O)Nc1cccc(OC(F)(F)F)c1` [Example 273, 1-(4-(diisobutylamino)-2′-(1H-tetrazol-5-yl)-[1,1′-biphenyl]-3-yl)-3-(3-(trifluoromethoxy)phenyl)urea]: the midpoint of inhibition, the IC50, lay at 180 nM.
For `O=C(Nc1ccc(C2CC2)c(F)c1)Nc1cc(-c2ccccc2-c2nnn[nH]2)ccc1N(CCCC(F)(F)F)Cc1ccc(Cl)cc1` [Example 297, 1-(4-((4-chlorobenzyl)(4,4,4-trifluorobutyl)amino)-2′-(1H-tetrazol-5-yl)-[1,1′-biphenyl]-3-yl)-3-(4-cyclopropyl-3-fluorophenyl)urea], inhibition was half-maximal at 10 nM (IC50). This IC50 lies about 18-fold lower than the previous one.
For the molecule `Cc1ccc(NC(=O)Nc2cc(-c3ccccc3C(=O)O)ccc2N(CCC(F)(F)F)Cc2ccccc2Cl)cc1` [Example 17, 4′-((2-Chlorobenzyl)(3,3,3-trifluoropropyl)amino)-3′-(3-(p-tolyl)ureido)-[1,1′-biphenyl]-2-carboxylic acid], half-maximal inhibition (IC50) was put at 270 nM.
In the case of `CCC1CCCCN1c1ccc(-c2ccccc2-c2nnn[nH]2)cc1NC(=O)Nc1ccc(C)cc1` (centres unmarked) [Example 114, 1-(4-(2-ethylpiperidin-1-yl)-2′-(1H-tetrazol-5-yl)biphenyl-3-yl)-3-p-tolylurea], the half-inhibitory concentration (IC50) is 160 nM. This IC50 is about 1.7-fold lower than that of the molecule before.
For `Cc1ccc(NC(=O)Nc2cc(-c3cc(F)ccc3C(=O)O)ccc2N(C)C2CCC(F)(F)CC2)cc1` [Example 105, 4′-((4,4-difluoro-cyclohexyl) (methyl)amino)-5-fluoro-3′-(3-p-tolylureido) biphenyl-2-carboxylic acid], half-maximal inhibition (IC50) required 190 nM. This IC50 and that of the molecule before are within 1.5-fold of each other.
`Cc1ccc(NC(=O)Nc2cc(-c3ccccc3C(=O)O)ccc2N(C)C2CCC(F)(F)CC2)cc1` [Example 104, 4′-((4,4-difluoro-cyclohexyl) (methyl)amino)-3′-(3-p-tolylureido)biphenyl-2-carboxylic acid] gave an IC50 of 100 nM. This IC50 is about 1.9-fold lower than that of the molecule before.
To `O=C(Nc1ccc(F)nc1)Nc1cc(-c2ccccc2-c2nnn[nH]2)ccc1N1CCC(c2ccccc2)C1` (racemic) [Example 371, (±)-1-(6-Fluoropyridin-3-yl)-3-(4-(3-phenylpyrrolidin-1-yl)-2′-(1H-tetrazol-5-yl)-[1,1′-biphenyl]-3-yl)urea] belongs 3740 nM.
With `Cc1ccc(NC(=O)Nc2cc(-c3ccccc3-c3nnn[nH]3)ccc2N(CC(C)C)CC(C)C)c(F)c1` [Example 264, 1-(4-(diisobutylamino)-2′-(1H-tetrazol-5-yl)-[1,1′-biphenyl]-3-yl)-3-(2-fluoro-4-methylphenyl)urea] the figure was 2.61 nM; with `CC(C)CN(CC(C)C)c1ccc(-c2ccccc2-c2nnn[nH]2)cc1NC(=O)Nc1ccc(N=[N+]=[N-])cc1` [Example 285, 1-(4-azidophenyl)-3-(4-(diisobutylamino)-2′-(1H-tetrazol-5-yl)-[1,1′-biphenyl]-3-yl)urea], 2.28 nM.
Consider `Cc1ccc(NC(=O)Nc2cc(-c3ccccc3C(=O)O)ccc2N(CCC(F)(F)F)CC2CC2)cc1` [Example 64, 4′-((cyclopropylmethyl) (3,3,3-trifluoropropyl)amino)-3′-(3-p-tolylureido)biphenyl-2-carboxylic acid], for which the half-inhibitory concentration (IC50) is 290 nM.
Regarding `CC(C)CN(CC(C)C)c1ccc(-c2ccccc2-c2nnn[nH]2)cc1NC(=O)NC(C)(C)CC(C)(C)C` [Example 288, 1-(4-(Diisobutylamino)-2′-(1H-tetrazol-5-yl)-[1,1′-biphenyl]-3-yl)-3-(2,4,4-trimethylpentan-2-yl)urea], the IC50 was 9120 nM.
To `CCN(CC(C)(C)C)c1ccc(-c2cc(F)ccc2C(=O)O)cc1NC(=O)Nc1ccccc1F` [Example 115, 4′-(ethyl(neopentyl)amino)-5-fluoro-3′-(3-(2-fluorophenyl)ureido) biphenyl-2-carboxylic acid] belongs 350 nM.
To `Cc1ccc(NC(=O)Nc2cc(-c3ccccc3-c3nnn[nH]3)ccc2N(CCC2CC2)CC(C)C)cc1` [Example 129, 1-(4-((2-cyclopropylethyl) (isobutyl)amino)-2′-(1H-tetrazol-5-yl)biphenyl-3-yl)-3-p-tolylurea] belongs 9.53 nM; to `Cc1ccc(NC(=O)Nc2cc(-c3ccccc3-c3nnn[nH]3)ccc2N(CCC(F)(F)F)Cc2ccccn2)cc1` [Example 506, 1-(4-((pyridin-2-ylmethyl)(3,3,3-trifluoropropyl)amino)-2′-(1H-tetrazol-5-yl)-[1,1′-biphenyl]-3-yl)-3-(p-tolyl)urea], 40 nM.
The molecule `CC(C)CN(c1ccc(-c2ccccc2C(=O)O)cc1NC(=O)Nc1ccccc1F)C1CCCC1` [Example 173, 4′-(cyclopentyl(isobutyl)amino)-3′-(3-(2-fluorophenyl)ureido) biphenyl-2-carboxylic acid] came in with an IC50 of 10 nM. This IC50 is about 4-fold lower than that of the molecule before.
In turn, `Cc1ccc(NC(=O)Nc2cc(-c3ccccc3-c3nnn[nH]3)ccc2N2CCC(c3ccc(F)cc3)C2)cc1` (centres unmarked) [Example 386] displayed an IC50 of 40 nM.
To `CC(C)CN(CC(C)C)c1ccc(-c2ccccc2-c2nnn[nH]2)cc1NC(=O)Nc1nncs1` [Example 145, 1-(4-(diisobutylamino)-2′-(1H-tetrazol-5-yl)biphenyl-3-yl)-3-(1,3,4-thiadiazol-2-yl)urea] belongs 80 nM; to `Cc1ccc(NC(=O)Nc2cc(-c3ccccc3C(=O)O)ccc2N(CC(C)C)CC(F)(F)F)cc1` [Example 474], 90 nM; to `O=C(Nc1ccc(C2CC2)c(F)c1)Nc1cc(-c2ccccc2-c2nnn[nH]2)ccc1N(CCC(F)(F)F)Cc1ccc(Cl)cc1Cl` [Example 351, 1-(4-cyclopropyl-3-fluorophenyl)-3-(4-((2,4-dichlorobenzyl)(3,3,3-trifluoropropyl)amino)-2′-(1H-tetrazol-5-yl)-[1,1′-biphenyl]-3-yl)urea], 350 nM.
On to `CC1CC(C)CN(c2ccc(-c3ccccc3-c3nnn[nH]3)cc2NC(=O)Nc2ccccc2F)C1` (centres unmarked) [Example 237], for which half-maximal inhibition (IC50) required 1290 nM.
With `O=C(Nc1cc(-c2ccccc2-c2nnn[nH]2)ccc1N(CCc1ccccc1)CCC(F)(F)F)Nc1ccccc1C(F)(F)F` [Example 295, 1-(4-(Phenethyl(3,3,3-trifluoropropyl)amino)-2′-(1H-tetrazol-5-yl)biphenyl-3-yl)-3-(2-(trifluoromethyl)phenyl)urea] the figure was 300 nM; with `Cc1ccc(NC(=O)Nc2cc(-c3ccccc3C(=O)O)ccc2N(CC(C)C)C(C)C)cc1` [Example 148, 4′-(isobutyl(isopropyl)amino)-3′-(3-p-tolylureido)biphenyl-2-carboxylic acid], 40 nM.
With `CN(c1ccc(-c2ccccc2C(=O)O)cc1NC(=O)Nc1ccccc1F)c1ccccc1C(C)(C)C` [Example 480] the figure was 1840 nM; with `CC(C)CN(CC(C)C)c1ccc(-c2ccc(F)cc2C(=O)O)cc1NC(=O)Nc1ccccc1Cl` [Example 68, 3′-(3-(2-chlorophenyl)ureido)-4′-(diisobutylamino)-4-fluorobiphenyl-2-carboxylic acid], 560 nM.

(Values after patent US9758492B2, “IDO inhibitors” (Bristol-Myers Squibb Company, priority 2013, dated 2017).)
